Assays:
[1] = test system: anti-17α-dihydroequilin serum; test: Cross-reactivity of steroids with the anti-17α-dihydroequilin serum (radioimmunoassay); assay type: binding; settings: selected rabbit anti-17α-dihydroequilin serum; [2,4-3H]-17α-dihydroequilin tracer
Method: For the assay procedure, a standard was prepared from a stock solution of unlabeled steroid in absolute ethanol (100 ng/ml). A working standard solution containing 1 ng/ml of unlabeled steroid was prepared in sodium phosphate buffer (0.1 M, pH 7, 0.9% NaCl). The labeled [2,4-^3 H]-17α-dihydroequilin solution was prepared in the assay buffer at a concentration of 100 pg/ml. The antiserum was prepared in BSA-assay buffer (1 g BSA/1000 ml sodium phosphate buffer) at a concentraton of one-fifth of the final working dilutions.
The standard curve was established by preparing duplicate 3 ml centrifuge tubes containing 0, 50, 100, 250, 500, 1000, and 2000 pg of the steroid in a total volume of 0.5 ml assay buffer. The sample tubes were prepared in duplicate with hydrolyzed plasma extract (0.1 ml) and assay buffer (0.4 ml) in a total volume of 0.5 ml. To all standard and sample tubes antibody (0.25 ml) and labeled steroid (0.5 ml) were added. These were mixed and allowed to incubate at 4° C. for 18 hr. After addition of 0.2 ml gamma globulin dextran-coated charcoal (4 g charcoal, 0.4 g dextran, 0.8 g human gamma globulin, 200 ml deionized water), each tube was again mixed and placed in a cold room (4° C.) for 20 min. After centrifugation at 2,500 rev./min for 6 min, 0.5 ml of each supernatant was aliquoted into a counting vial. Then 15 ml of a scintillation medium [(4 g of 2,5-diphenyloxazole (PPO), 50 mg of 1,4-di-2-(5-phenyloxazoyl)benzene (dimethyl-POPOP), 100 ml of the aqueous solubilizer Biosolv BBS-3 (Biosolv is a trademark of Beachman Instruments, Irvine, Calif., U.S.A.) and 1000 ml toluene] was added to each vial. The samples were counted to a relative standard error of less than 2% in a Packard model 3320 liquid scintillation counter, Packard Instrument Co., Downers Grove, Ill., U.S.A., see C. Matthijssen and J. W. Goldzieher, Analyt. Biochem., 10, 401 (1965).
The titer was determined from the ability of antibody to bind a constant amount (50 pg) of the labeled steroid.

[2] = Oxidation of 17α-dihydroequilin to 17α-dihydroequilenin during formic acid hydrolysis (HPLC); assay type: physicochemical; settings: 120 min
Method: Plasma (0.2 ml) and distilled water (0.7 ml) were added to a 16×125 mm tube and mixed. [6,7-^3 H]-Estrone-3-sulfate (0.1 ml, 2000 cpm, obtained from New England Nuclear Corp.), and [2,4-^3 H]-17α-dihydroequilin (0.1 ml, 2000 cpm) was then added to correct for recovery through the assay procedure, and the sample again mixed well and allowed to stand at room temperature for 30 min. Diethyl ether (2 ml) was added for extraction of the free compound. The extraction was repeated three times and the combined extracts washed with distilled water (1 ml) and the solvent removed by evaporation. The aqueous phase containing the conjugates was re-extracted with 2 ml of ethyl acetate-ethanol (4:1, v/v). The extraction was repeated two more times and the combined extracts were dried in a centrifuge tube (12 ml) under a stream of nitrogen. Absolute ethanol was added to those tubes which contained residual water and once again dried under nitrogen. The conjugate fraction was hydrolyzed with formic acid. […] The tube was tightly closed, vortexed, and sonified for 10 min before being placed in a 37° C. water bath for 2 hr. The hydrolyzed sample was taken to dryness, sodium phosphate buffer (1 ml) was added, and the solution was vortexed and allowed to stand at 20° C. for 10 min. The hydrolyzed free compound was extracted with diethyl ether (2 ml) three times and taken to dryness. […]

Compound	17α-Dihydroequilin Antibody (Percent Cross-Reactivity) [1]	17α-dihydroequilin oxidized to 17α-dihydroequilenin during hydrolysis with formic acid ([2]; 0.1% (w/v) ascorbic acid added before hydrolysis)	17α-dihydroequilin oxidized to 17α-dihydroequilenin during hydrolysis with formic acid ([2]; without ascorbic acid)
C[C@]12CCC(=O)C=C1CC[C@@H]1[C@@H]2CC[C@]2(C)C(=O)CC[C@@H]12 [4-Androstene-3,17-dione]	< 0.10%	–	–
C[C@]12CC[C@@H]3c4ccc(O)cc4C=C[C@H]3[C@@H]1CCC2=O [6-Dehydroestrone]	< 0.10%	–	–
C[C@]12CCC3=C(CCc4cc(O)ccc43)[C@@H]1CCC2=O [8-Dehydroestrone]	< 0.10%	–	–
C[C@]12CCc3c(ccc4cc(O)ccc34)[C@@H]1CC[C@H]2O [17α-Dihydroequilenin]	< 0.10%	–	–
C[C@]12CC[C@H]3C(=CCc4cc(OS(=O)(=O)O)ccc43)[C@@H]1CC[C@H]2O [17α-Dihydroequilin 3-sulfate]	9.04%	–	–
C[C@]12CC[C@H]3C(=CCc4cc(O)ccc43)[C@@H]1CC[C@H]2O [17α-Dihydroequilin, 1,3,5(10),7-estratetraene-3,17α-diol]	100.0%	2-3%	13-16%
C[C@]12CC[C@@H]3c4ccc(OS(=O)(=O)O)cc4CC[C@H]3[C@@H]1CC[C@H]2O [17α-Estradiol 3-sulfate]	< 0.10%	–	–
C[C@]12CCc3c(ccc4cc(O)ccc34)[C@@H]1CC[C@@H]2O [17β-Dihydroequilenin]	< 0.10%	–	–
C[C@]12CC[C@H]3C(=CCc4cc(O)ccc43)[C@@H]1CC[C@@H]2O [17β-Dihydroequilin]	< 0.10%	–	–
C[C@]12CC[C@@H](O)C[C@@H]1CC[C@@H]1[C@@H]2CC[C@]2(C)C(=O)CC[C@@H]12 [Androsterone]	< 0.10%	–	–
C[C@]12CCC(=O)C=C1CC[C@@H]1[C@@H]2[C@@H](O)C[C@@]2(C)[C@H]1CC[C@]2(O)C(=O)CO [Cortisol]	< 0.10%	–	–
C[C@]12CC[C@H](O)CC1=CC[C@@H]1[C@@H]2CC[C@]2(C)C(=O)CC[C@@H]12 [Dehydroepiandrosterone]	< 0.10%	–	–
C[C@]12CCc3c(ccc4cc(O)ccc34)[C@@H]1CCC2=O [Equilenin]	0.40%	–	–
C[C@]12CC[C@@H]3c4ccc(O)cc4C[C@@H](O)[C@]3(O)[C@@H]1CCC2=O [Equilin-7α,8α-glycol]	< 0.10%	–	–
C[C@]12CC[C@H]3C(=CCc4cc(O)ccc43)[C@@H]1CCC2=O [Equilin]	0.7%	–	–
C[C@]12CC[C@@H]3c4ccc(O)cc4CC[C@H]3[C@@H]1CC[C@H]2O [Estradiol-17α]	< 0.10%	–	–
C[C@]12CC[C@@H]3c4ccc(O)cc4CC[C@H]3[C@@H]1CC[C@@H]2O [Estradiol-17β]	< 0.10%	–	–
C[C@]12CC[C@@H]3c4ccc(O)cc4CC[C@H]3[C@@H]1CCC2=O [Estrone]	< 0.10%	–	–
CC(=O)[C@H]1CC[C@H]2[C@@H]3CCC4=CC(=O)CC[C@]4(C)[C@H]3CC[C@]12C [Progesterone]	< 0.10%	–	–
C[C@]12CC[C@H]3[C@@H](CCC4=CC(=O)CC[C@@]43C)[C@@H]1CC[C@@H]2O [Testosterone]	< 0.10%	–	–
